Measured values as given in US20260226020A1, “Nav 1.7 AND/OR Nav 1.8 BLOCKING HYDRAZIDES, PROCESSES FOR THE PREPARATION THEREOF, COMPOSITIONS, USES, METHODS OF TREATMENT USING SAME AND KITS” (Eurofarma Laboratórios S.A., priority 2023, published 2026).

Key:
[1] = target: T1, human sodium channels Nav 1.7 (Homo sapiens, UniProt Q15858); assay: Automated whole-cell voltage-clamp (ScreenPatch 384P) sodium current block in CHO cells expressing Nav 1.7; type: cell-based; settings: CHO cells stably expressing human Nav 1.7; whole cell patch clamp, inactivation step -40 mV 8 s, test step 0 mV (TP1A), room temperature; mean where tested in two or more assays; read-out: Nav1.7 IC50
T1 construct: expressed in transfected cells
Experimental: (§1) Biological assays were performed on Chinese hamster ovary (CHO) cells that express human sodium channels Nav 1.8 or Nav 1.7 in a stable manner.
(§2) The experimental protocol voltage-clamp using the whole cell configuration was established on the automated ScreenPatch© 384P platform (SP384PE, Nanion Technologies, Livingston, NJ) and the results were recorded with a Nanion 384-well Patch Clamp chip (NPC) (Nanion Technologies, Livingston, NJ).
(§3) Formula I compounds were diluted in eight concentrations in the extracellular solution composed of saline saline solution, buffered with HEPES (mM): NaCl, 137; KCl, 4; CaCl2, 3.8; MgCl2, 1; HEPES, 10; Glucose, 10; pH 7.4. The […], 50; CsF, 90; MgCl2, 5; EGTA, 5; HEPES, 10; pH 7.2. The duration of exposure of each compound with cells expressing Nav 1.7 or Nav 1.8 was at least five minutes, and the assays were performed at room temperature.
(§4) The measurements of the sodium currents of Nav 1.8 and Nav 1.7 were obtained using the voltage protocol described below.
(§5) A holding voltage of −100 mV was established followed by an inactivation voltage step at −40 mV for 8 seconds, followed by a step of −100 mV for 20 ms, followed by a 20 ms step for 10 mV for Nav 1.8 or 0 mV for Nav 1.7 (TP1A) before returning to the holding voltage of −100 mV.
(§6) The protocol was repeated at a frequency of 0.05 Hz and the amplitude of the current was quantified throughout the recording of the TP1A phase. The variation in the amplitude of the peak current was evaluated according to the formula described below, after exposing the cells expressing the channels to each concentration of the different compounds:
(§7) wherein ITP1A,basal and ITP1A,molecule represent the peaks of sodium current input into TP1A before exposure to the compound and in the presence of the compound, respectively.
(§8) The decrease in the amplitude of the peak current, after the exposure of the cells to the compounds, was used to calculate the percentage of relative blockage of the channels in relation to the positive control according to the formula below: […]
(§9) wherein % V and % CP represent the means of the values of current inhibition with a vehicle (DMSO) and positive controls, respectively. The sodium currents of the positive control were considered as 100%.
(§10) wherein [Test] represents the concentration of the molecule evaluated, CI50 is the concentration of the compound that generates half of the maximum inhibition, N is the Hill coefficient, and % Block′ is the percentage of sodium channel current (Nav 1.8 and Nav 1.7) blocked at each concentration of the molecule evaluated. Data were obtained by nonlinear regression (nonlinear least squares) with XLfit for Excel (Microsoft, Redmond, WA).
(§11) The compounds were tested in at least one assay to obtain the value of CI50. For compounds that were tested in two or more assays, the results are described as the means of the CI50 values.

[2] = target: T2, human sodium channels Nav 1.8 (Homo sapiens, UniProt Q9Y5Y9); assay: Automated whole-cell voltage-clamp (ScreenPatch 384P) sodium current block in CHO cells expressing Nav 1.8; type: cell-based; settings: CHO cells stably expressing human Nav 1.8; whole cell patch clamp, inactivation step -40 mV 8 s, test step 10 mV (TP1A), room temperature; mean where tested in two or more assays; read-out: Nav1.8 IC50
T2 construct: expressed in transfected cells
Experimental: as §1, §2, §3, §4, §5, §6, §7, §8, §9, §10, §11

T1 sequence (Q15858 whole entry): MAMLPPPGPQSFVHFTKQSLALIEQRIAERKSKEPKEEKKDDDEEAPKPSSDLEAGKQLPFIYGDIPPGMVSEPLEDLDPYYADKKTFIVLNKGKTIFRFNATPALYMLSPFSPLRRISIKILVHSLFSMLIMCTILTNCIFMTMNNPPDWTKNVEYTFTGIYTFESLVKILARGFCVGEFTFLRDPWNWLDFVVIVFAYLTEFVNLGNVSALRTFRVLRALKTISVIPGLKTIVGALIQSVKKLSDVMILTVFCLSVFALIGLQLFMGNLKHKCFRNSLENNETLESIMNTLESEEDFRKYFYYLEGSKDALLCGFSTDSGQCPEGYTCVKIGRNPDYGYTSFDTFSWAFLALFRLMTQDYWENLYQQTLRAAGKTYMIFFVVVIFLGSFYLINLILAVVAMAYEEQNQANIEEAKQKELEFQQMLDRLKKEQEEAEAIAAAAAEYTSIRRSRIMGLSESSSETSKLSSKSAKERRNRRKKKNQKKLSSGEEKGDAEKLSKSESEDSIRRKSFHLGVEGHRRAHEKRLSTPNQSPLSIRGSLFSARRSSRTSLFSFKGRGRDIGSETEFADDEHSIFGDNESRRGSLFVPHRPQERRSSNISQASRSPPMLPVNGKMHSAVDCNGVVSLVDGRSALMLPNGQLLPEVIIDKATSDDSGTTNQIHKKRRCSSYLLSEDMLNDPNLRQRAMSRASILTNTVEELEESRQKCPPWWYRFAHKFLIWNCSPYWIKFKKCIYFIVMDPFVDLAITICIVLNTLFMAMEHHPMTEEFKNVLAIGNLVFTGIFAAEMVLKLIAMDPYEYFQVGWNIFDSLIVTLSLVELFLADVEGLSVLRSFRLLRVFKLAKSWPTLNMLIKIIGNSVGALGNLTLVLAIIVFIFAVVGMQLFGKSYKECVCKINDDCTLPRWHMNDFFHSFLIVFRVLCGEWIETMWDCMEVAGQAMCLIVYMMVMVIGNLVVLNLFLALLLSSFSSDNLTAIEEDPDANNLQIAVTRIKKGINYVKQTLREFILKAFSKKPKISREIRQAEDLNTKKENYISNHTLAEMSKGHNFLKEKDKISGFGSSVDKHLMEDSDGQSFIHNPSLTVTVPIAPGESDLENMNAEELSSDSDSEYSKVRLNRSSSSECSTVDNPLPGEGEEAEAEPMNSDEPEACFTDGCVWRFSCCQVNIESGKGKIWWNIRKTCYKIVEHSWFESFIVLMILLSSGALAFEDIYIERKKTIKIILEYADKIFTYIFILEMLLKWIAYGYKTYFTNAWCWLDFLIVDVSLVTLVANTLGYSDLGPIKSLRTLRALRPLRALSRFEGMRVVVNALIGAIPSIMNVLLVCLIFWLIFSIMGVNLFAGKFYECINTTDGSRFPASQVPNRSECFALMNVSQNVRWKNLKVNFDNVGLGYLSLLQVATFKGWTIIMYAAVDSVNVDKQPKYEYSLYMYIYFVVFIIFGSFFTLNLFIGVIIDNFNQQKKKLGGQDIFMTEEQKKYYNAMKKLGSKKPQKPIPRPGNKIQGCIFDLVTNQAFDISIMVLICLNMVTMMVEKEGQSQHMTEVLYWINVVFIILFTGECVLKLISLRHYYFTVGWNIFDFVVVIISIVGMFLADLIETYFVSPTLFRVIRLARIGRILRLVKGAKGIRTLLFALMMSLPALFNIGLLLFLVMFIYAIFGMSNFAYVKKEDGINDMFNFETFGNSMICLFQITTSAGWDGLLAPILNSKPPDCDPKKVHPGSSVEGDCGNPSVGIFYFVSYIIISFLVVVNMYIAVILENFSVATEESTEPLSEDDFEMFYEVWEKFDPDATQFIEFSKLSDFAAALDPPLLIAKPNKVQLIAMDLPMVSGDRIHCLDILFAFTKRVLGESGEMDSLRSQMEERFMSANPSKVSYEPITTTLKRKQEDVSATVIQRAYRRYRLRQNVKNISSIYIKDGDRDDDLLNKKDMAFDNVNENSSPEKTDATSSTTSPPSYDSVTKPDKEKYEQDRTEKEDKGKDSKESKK
T2 sequence (Q9Y5Y9 whole entry): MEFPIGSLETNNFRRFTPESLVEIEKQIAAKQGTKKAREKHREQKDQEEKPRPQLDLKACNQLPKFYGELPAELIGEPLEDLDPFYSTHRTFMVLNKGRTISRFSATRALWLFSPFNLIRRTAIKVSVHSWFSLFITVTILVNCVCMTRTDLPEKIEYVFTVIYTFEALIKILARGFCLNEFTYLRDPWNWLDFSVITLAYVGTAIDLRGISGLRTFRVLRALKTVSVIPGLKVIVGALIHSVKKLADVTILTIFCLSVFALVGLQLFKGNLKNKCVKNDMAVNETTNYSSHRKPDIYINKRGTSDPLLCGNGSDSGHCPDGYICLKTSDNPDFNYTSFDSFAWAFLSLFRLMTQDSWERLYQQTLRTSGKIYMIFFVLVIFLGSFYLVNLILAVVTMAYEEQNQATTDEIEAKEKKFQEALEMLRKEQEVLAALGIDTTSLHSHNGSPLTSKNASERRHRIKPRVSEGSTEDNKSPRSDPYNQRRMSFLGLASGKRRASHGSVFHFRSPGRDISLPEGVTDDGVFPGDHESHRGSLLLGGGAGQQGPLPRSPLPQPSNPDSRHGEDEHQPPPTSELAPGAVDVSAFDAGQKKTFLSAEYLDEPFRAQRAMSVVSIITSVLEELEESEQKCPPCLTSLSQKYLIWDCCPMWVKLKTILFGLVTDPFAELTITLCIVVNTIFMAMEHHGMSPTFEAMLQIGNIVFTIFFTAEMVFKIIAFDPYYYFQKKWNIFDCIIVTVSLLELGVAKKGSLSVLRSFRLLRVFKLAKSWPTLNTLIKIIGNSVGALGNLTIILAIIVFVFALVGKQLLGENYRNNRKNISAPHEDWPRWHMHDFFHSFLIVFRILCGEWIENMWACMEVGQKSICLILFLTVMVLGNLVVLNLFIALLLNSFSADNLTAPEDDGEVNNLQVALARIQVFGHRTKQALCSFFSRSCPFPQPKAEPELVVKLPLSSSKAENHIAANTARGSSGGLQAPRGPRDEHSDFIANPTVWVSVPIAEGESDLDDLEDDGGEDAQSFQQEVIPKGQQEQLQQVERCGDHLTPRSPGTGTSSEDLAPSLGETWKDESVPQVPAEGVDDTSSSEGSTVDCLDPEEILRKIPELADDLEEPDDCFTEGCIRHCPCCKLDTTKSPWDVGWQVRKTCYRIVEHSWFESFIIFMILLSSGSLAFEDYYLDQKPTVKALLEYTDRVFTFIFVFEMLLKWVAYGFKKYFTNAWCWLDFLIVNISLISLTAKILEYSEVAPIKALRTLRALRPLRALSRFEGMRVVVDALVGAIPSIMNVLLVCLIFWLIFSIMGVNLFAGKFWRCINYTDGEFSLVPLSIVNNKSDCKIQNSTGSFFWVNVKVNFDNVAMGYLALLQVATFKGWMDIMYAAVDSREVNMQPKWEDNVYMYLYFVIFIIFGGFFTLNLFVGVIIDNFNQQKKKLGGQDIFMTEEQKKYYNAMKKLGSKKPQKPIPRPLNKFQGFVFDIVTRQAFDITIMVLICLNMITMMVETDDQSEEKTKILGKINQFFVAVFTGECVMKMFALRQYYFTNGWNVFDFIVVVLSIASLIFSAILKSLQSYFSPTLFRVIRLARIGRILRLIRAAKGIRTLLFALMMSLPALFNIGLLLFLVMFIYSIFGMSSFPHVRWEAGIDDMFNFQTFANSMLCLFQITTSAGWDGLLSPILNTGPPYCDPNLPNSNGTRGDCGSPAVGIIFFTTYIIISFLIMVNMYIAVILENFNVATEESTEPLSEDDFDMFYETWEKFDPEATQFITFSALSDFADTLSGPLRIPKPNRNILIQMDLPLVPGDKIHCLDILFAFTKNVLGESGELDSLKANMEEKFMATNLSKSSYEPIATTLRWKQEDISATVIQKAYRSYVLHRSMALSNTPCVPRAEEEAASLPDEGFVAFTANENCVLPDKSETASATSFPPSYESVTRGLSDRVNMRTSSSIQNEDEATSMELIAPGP

CCOc1cc(C)c(-c2cncc(C(=O)NNCc3cc(OC)cc(OC)c3)n2)cn1 [Compound 40, N′-(3,5-dimethoxybenzyl)-6-(6-ethoxy-4-methylpyridin-3-yl)pyrazine-2-carbohydrazide]
IC50 [1]: > 1000 nM | IC50 [2]: > 1000 nM

CCOc1ccc(-c2cncc(C(=O)NNCc3cc(OC)cnc3C)n2)cn1 [Compound 34, 6-(6-ethoxypyridin-3-yl)-N′-((5-methoxy-2-methylpyridin-3-yl)methyl)pyrazine-2-carbohydrazide]
IC50 [1]: > 1000 nM | IC50 [2]: < 500 nM

CCOc1ccc(-c2cncc(C(=O)NNCc3cc(OC)cc(OC)c3)n2)c(C)c1 [Compound 28, N′-(3,5-dimethoxybenzyl)-6-(4-ethoxy-2-methylphenyl)pyrazine-2-carbohydrazide]
IC50 [1]: > 1000 nM | IC50 [2]: < 500 nM

COc1cc(CNNC(=O)c2cncc(-c3ccc(OC(F)F)cc3)n2)cc(OC)c1 [Compound 7, 6-(4-(difluoromethoxy)phenyl)-N′-(3,5-dimethoxybenzyl)pyrazine-2-carbohydrazide]
IC50 [1]: > 1000 nM | IC50 [2]: 500 to 1000 nM

CCOc1ccc(-c2cncc(C(=O)NN(C)Cc3cc(OC)cc(OC)c3)n2)cc1 [Compound 17, N′-(3,5-dimethoxybenzyl)-6-(4-ethoxyphenyl)-N′-methylpyrazine-2-carbohydrazide]
IC50 [1]: > 1000 nM | IC50 [2]: > 1000 nM

CCOc1ccc(-c2cncc(C(=O)NNCc3ccccc3F)n2)cc1 [Compound 22, 6-(4-ethoxyphenyl)-N′-(2-fluorobenzyl)pyrazine-2-carbohydrazide]
IC50 [1]: > 1000 nM | IC50 [2]: < 500 nM

COc1cc(CNNC(=O)c2cncc(-c3ccc(OC4CC4)nc3)n2)cc(OC)c1 [Compound 42, 6-(6-cyclopropoxypyridin-3-yl)-N′-(3,5-dimethoxybenzyl)pyrazine-2-carbohydrazide]
IC50 [1]: > 1000 nM | IC50 [2]: 500 to 1000 nM

CCOc1ccc(-c2cncc(C(=O)NN[C@@H](C)c3cc(OC)cc(OC)c3)n2)cc1 (single isomer, unassigned) [Compound 24]
IC50 [1]: > 1000 nM | IC50 [2]: > 1000 nM

CCOc1ccc(-c2cncc(C(=O)NNCc3cc(OC)ccc3F)n2)cc1 [Compound 15, 6-(4-ethoxyphenyl)-N′-(2-fluoro-5-methoxybenzyl)pyrazine-2-carbohydrazide]
IC50 [1]: > 1000 nM | IC50 [2]: < 500 nM

CCOc1ccc(-c2cccc(C(=O)NNCc3ccccc3F)n2)cc1 [Compound 50, 6-(4-ethoxyphenyl)-N′-(2-fluorobenzyl)picolinohydrazide]
IC50 [1]: > 1000 nM | IC50 [2]: > 1000 nM

O=C(NNCc1ccc(Cl)cc1)c1cncc(-c2ccc(Cl)cc2)n1 [Compound 5, N′-(4-chlorobenzyl)-6-(4-chlorophenyl)pyrazine-2-carbohydrazide]
IC50 [1]: > 1000 nM | IC50 [2]: > 1000 nM

CCOc1ccc(-c2cncc(C(=O)NNCc3cc(OC)cc(OC)c3)n2)cc1 [Compound 10, N′-(3,5-dimethoxybenzyl)-6-(4-ethoxyphenyl)pyrazine-2-carbohydrazide]
IC50 [1]: 500 to 1000 nM | IC50 [2]: < 500 nM

CCOc1ccc(-c2cncc(C(=O)NNCc3ccccc3F)c2)cc1 [Compound 49, 5-(4-ethoxyphenyl)-N′-(2-fluorobenzyl)nicotinohydrazide]
IC50 [1]: > 1000 nM | IC50 [2]: < 500 nM

CCOc1ccc(-c2cncc(C(=O)NNCc3cc(OC)cnc3F)n2)cn1 [Compound 31, 6-(6-ethoxypyridin-3-yl)-N′-((2-fluoro-5-methoxypyridin-3-yl)methyl)pyrazine-2-carbohydrazide]
IC50 [1]: > 1000 nM | IC50 [2]: > 1000 nM

COc1ccc(-c2cncc(C(=O)NNCc3ccc(Cl)cc3)n2)cc1 [Compound 2, N′-(4-chlorobenzyl)-6-(4-methoxyphenyl)pyrazine-2-carbohydrazide]
IC50 [1]: > 1000 nM | IC50 [2]: > 1000 nM

COc1cc(CNNC(=O)c2cncc(-c3ccc(OC(F)F)nc3)n2)cc(OC)c1 [Compound 8, 6-(6-(difluoromethoxy)pyridin-3-yl)-N′-(3,5-dimethoxybenzyl)pyrazine-2-carbohydrazide]
IC50 [1]: > 1000 nM | IC50 [2]: < 500 nM

CCOc1ccc(-c2cncc(C(=O)NNCc3cc(OC)cc(OC)c3)n2)c(C)n1 [Compound 41, N′-(3,5-dimethoxybenzyl)-6-(6-ethoxy-2-methylpyridin-3-yl)pyrazine-2-carbohydrazide]
IC50 [1]: > 1000 nM | IC50 [2]: 500 to 1000 nM

CCOc1ccc(-c2cncc(C(=O)NN3CCc4ccc(OC)cc4C3)n2)cc1 [Compound 45, 6-(4-ethoxyphenyl)-N-(7-methoxy-3,4-dihydroisoquinoline-2(1H)-yl)pyrazine-2-carboxamide]
IC50 [1]: > 1000 nM | IC50 [2]: < 500 nM

CCOc1ccc(-c2cncc(C(=O)NNCc3ccccc3F)n2)cn1 [Compound 39, 6-(6-ethoxypyridin-3-yl)-N′-(2-fluorobenzyl)pyrazine-2-carbohydrazide]
IC50 [1]: > 1000 nM | IC50 [2]: < 500 nM

CCOc1ccc(-c2cncc(C(=O)NNCc3cc(OC)ccc3C)n2)cc1 [Compound 14, 6-(4-ethoxyphenyl)-N′-(5-methoxy-2-methylbenzyl)pyrazine-2-carbohydrazide]
IC50 [1]: > 1000 nM | IC50 [2]: < 500 nM

COc1ccc(-c2cncc(C(=O)NNCc3cc(OC)cc(OC)c3)n2)cc1 [Compound 1, N′-(3,5-dimethoxybenzyl)-6-(4-methoxyphenyl)pyrazine-2-carbohydrazide]
IC50 [1]: > 1000 nM | IC50 [2]: 500 to 1000 nM

CCOc1ccc(-c2cncc(C(=O)NN3Cc4ccc(OC)cc4C3)n2)cc1 [Compound 13, 6-(4-ethoxyphenyl)-N-(5-methoxyisoindolin-2-yl)pyrazine-2-carboxamide]
IC50 [1]: > 1000 nM | IC50 [2]: < 500 nM

CCOc1ccc(-c2cncc(C(=O)NNCc3cc(OC)ccc3C)n2)cn1 [Compound 33, 6-(6-ethoxypyridin-3-yl)-N′-(5-methoxy-2-methylbenzyl)pyrazine-2-carbohydrazide]
IC50 [1]: > 1000 nM | IC50 [2]: < 500 nM

CCOc1ccc(-c2cncc(C(=O)NN3CCOc4ccc(OC)cc4C3)n2)cc1 [Compound 12, 6-(4-ethoxyphenyl)-N-(7-methoxy-2,3-dihydrobenzo[f][1,4]oxazepine-4(5H)-yl)pyrazine-2-carboxamide]
IC50 [1]: > 1000 nM | IC50 [2]: > 1000 nM

O=C(NN1CCc2cc(Cl)ccc2C1)c1cncc(-c2ccc(Cl)cc2)n1 [Compound 6, N-(6-chloro-3,4-dihydroisoquinoline-2 (1H)-yl)-6-(4-chlorophenyl)pyrazine-2-carboxamide]
IC50 [1]: > 1000 nM | IC50 [2]: > 1000 nM

CCOc1ccc(-c2cncc(C(=O)NNCc3cccc(OC)c3)n2)cc1 [Compound 16, 6-(4-ethoxyphenyl)-N′-(3-methoxybenzyl)pyrazine-2-carbohydrazide]
IC50 [1]: > 1000 nM | IC50 [2]: < 500 nM

CCOc1ccc(-c2cncc(C(=O)NNCc3cc(OC)ccc3F)n2)cn1 [Compound 32, 6-(6-ethoxypyridin-3-yl)-N′-(2-fluoro-5-methoxybenzyl)pyrazine-2-carbohydrazide]
IC50 [1]: > 1000 nM | IC50 [2]: < 500 nM

CCOc1ccc(-c2cncc(C(=O)NNCc3ccc(Cl)cc3)n2)cc1 [Compound 9, N′-(4-chlorobenzyl)-6-(4-ethoxyphenyl)pyrazine-2-carbohydrazide]
IC50 [1]: > 1000 nM | IC50 [2]: > 1000 nM

CCOc1ccc(-c2cncc(C(=O)NNCc3cc(OC)cc(OC)c3)n2)c(F)c1 [Compound 27, N′-(3,5-dimethoxybenzyl)-6-(4-ethoxy-2-fluorophenyl)pyrazine-2-carbohydrazide]
IC50 [1]: > 1000 nM | IC50 [2]: < 500 nM

CCOc1ccc(-c2ccnc(C(=O)NNCc3ccccc3F)c2)cc1 [Compound 48, 4-(4-ethoxyphenyl)-N′-(2-fluorobenzyl)picolinohydrazide]
IC50 [1]: > 1000 nM | IC50 [2]: > 1000 nM

CCOc1ccc(-c2cnnc(C(=O)NNCc3ccccc3F)c2)cc1 [Compound 47, 5-(4-ethoxyphenyl)-N′-(2-fluorobenzyl)pyridazine-3-carbohydrazide]
IC50 [1]: > 1000 nM | IC50 [2]: > 1000 nM
